Our source for the EC50 and Emax values is patent US11111251B2, “Positive allosteric modulators of the muscarinic acetylcholine receptor M1” (Vanderbilt University, priority 2016, dated 2021).

Molecules are shown by their SMILES. Read-outs that look alike come from different tables or passages of the source. Bounds are passed on as bounds.

What is called EC50 is the concentration that produces a half-maximal response. What is called Emax is the size of the effect at its maximum, as opposed to the concentration needed.

In the assay the target is T1, human mAChR M1 (Homo sapiens, UniProt P11229).
T1 sequence (P11229 1-460): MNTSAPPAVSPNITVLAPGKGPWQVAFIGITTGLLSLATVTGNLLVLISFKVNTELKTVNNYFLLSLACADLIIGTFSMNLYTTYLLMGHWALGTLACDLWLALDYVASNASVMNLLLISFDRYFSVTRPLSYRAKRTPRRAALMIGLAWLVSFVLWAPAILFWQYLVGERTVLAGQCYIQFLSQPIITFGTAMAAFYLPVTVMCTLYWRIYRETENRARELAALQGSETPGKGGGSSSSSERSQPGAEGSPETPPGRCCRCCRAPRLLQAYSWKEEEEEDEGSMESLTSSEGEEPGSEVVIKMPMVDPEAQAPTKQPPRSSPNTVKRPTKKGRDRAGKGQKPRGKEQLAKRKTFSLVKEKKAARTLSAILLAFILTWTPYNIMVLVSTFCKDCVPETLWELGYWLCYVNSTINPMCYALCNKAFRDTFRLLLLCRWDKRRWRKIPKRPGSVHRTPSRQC
The experiment in a line: mAChR M1 cell-based functional assay: calcium mobilization, positive allosteric modulator mode (increase in EC20 acetylcholine response). The settings on record: for Emax: read-out: Human M1 Emax (%). An excerpt: a. Cell Lines Expressing Muscarinic Acetylcholine Receptors
Chinese hamster ovary (CHO-K1) cells stably expressing rat (r)M1 were purchased from the American Type Culture Collection and cultured according to their indicated protocol. CHO cells stably expressing human (h)M2, hM3, and hM5 were described previously (Levey, et al., 1991); hMi and hM4 cDNAs were purchased from Missouri S&T cDNA Resource; rM4 cDNA was provided by T. I. Bonner (National Institutes of Health, Bethesda, Md.). rM2 and rM3 were cloned from a rat brain cDNA library and sequence verified. hMi, rM2, rM3, hM4, and rM4 cDNAs were used to stably transfect CHO-K1 cells purchased from the American Type Culture Collection using Lipofectamine2000. To make stable rM2, hM2, rM3, hM4, and rM4 cell lines for use in calcium mobilization assays, these cells also were stably transfected with a chimeric G-protein (Gqi5) (provided by B. R. Conklin, University of California, San Francisco) using Lipofectamine 2000. rMi, hMi, rM3, hM3, rM5, and hM5 cells were grown in Ham's F-12 medium containing 10% heat-inactivated fetal bovine serum (FBS), 20 mM HEPES, and 50 μg/mL G418 sulfate. rM2-Gqi5, hM2-Gqi5, and hM4-Gqi5 cells were grown in the same medium also containing 500 μg/mL Hygromycin B. Stable rM4-Gqi5 cells were grown in DMEM containing 10% heat-inactivated FBS, 20 mM HEPES, 400 μg/mL G418 sulfate, and 500 μg/mL Hygromycin B.
b. Cell-Based Functional Assay of Muscarinic Acetylcholine Receptor Activity
For high throughput measurement of agonist-evoked increases in intracellular calcium, CHO-K1 cells stably expressing muscarinic receptors were plated in growth medium lacking G418 and hygromycin at 15,000 cells/20 μL/well in Greiner 384-well black-walled, tissue culture (TC)-treated, clear-bottom plates (VWR). Cells were incubated overnight at 37° C. and 5% CO2. The next day, cells were washed using an ELX 405 (BioTek) with four washes (80 μL) of assay buffer then aspirated to 20 μL. Next, 20 μL of 16 μM Fluo-4/acetoxymethyl ester (Invitrogen, Carlsbad, Calif.) prepared as a 2.3 mM stock in DMSO and mixed in a 1:1 ratio with 10% (w/v) Pluronic F-127 and diluted in assay buffer was added to the wells and the cell plates were incubated for 50 min at 37° C. and 5% CO2. Dye was removed by washing with the ELX 405 (four […], washes of assay buffer) then aspirated to 20 μL. Compound master plates were formatted in an 11 point CRC format (1:3 dilutions) in 100% DMSO with a starting concentration of 10 mM using the BRAVO liquid handler (Agilent). Test compound CRCs were then transferred to daughter plates (240 nL) using the Echo acoustic plate reformatter (Labcyte, Sunnyvale, Calif.) and then diluted into assay buffer (40 μL) to a 2× stock using a Thermo Fisher Combi (Thermo Fisher Scientific, Waltham, Mass.).
Calcium flux was measured using the Functional Drug Screening System (FDSS) 6000 (Hamamatsu Corporation, Tokyo, Japan) as an increase in the fluorescent static ratio. Compounds were applied to cells (20 μL, 2×) using the automated system of the FDSS 6000 at 4 s into the 300 s protocol and the data were collected at 1 Hz. At 144 s into the 300s protocol, 10 μL of an EC20 concentration of the muscarinic receptor agonist acetylcholine was added (5×), followed by the addition of 12 μL an EC80 concentration of acetylcholine at the 230 s time point (5×). Agonist activity was analyzed as a concentration-dependent increase in calcium mobilization upon compound addition. Positive allosteric modulator activity was analyzed as a concentration-dependent increase in the EC20 acetylcholine response. Antagonist activity was analyzed as a concentration-dependent decrease in the EC80 acetylcholine response. Concentration-response curves were generated using a four-parameter logistical equation in XLfit curve fitting software (IDBS, Bridgewater, N.J.) for Excel (Microsoft, Redmond, Wash.) or Prism (GraphPad Software, Inc., San Diego, Calif.).

Where [1] appears, read: Table 2, human M1, read-out: Human M1 EC50.

For the compound `O=C(N[C@@H]1CCOC1)c1cc(Cc2ccc(-c3cscn3)cc2)c2sccc2n1` [Compound 207, N-[(3R)-tetrahydrofuran-3-yl]-7-[(4-thiazol-4-ylphenyl)methyl]thieno[3,2-b]pyridine-5-carboxamide], under setting [1], the EC50 turned out to be 2970 nM. Moreover, the maximum response (Emax) (Table 2, human M1) turned out to be 77%.
For `Cn1ncc2nc(C(=O)N[C@H]3CCCC[C@@H]3O)cc(Cc3ccc(-c4cscn4)cc3)c21` [Compound 492, N-[(1S,2S)-2-hydroxycyclohexyl]-1-methyl-7-[(4-thiazol-4-ylphenyl)methyl]pyrazolo-[4,3-b]pyridine-5-carboxamide], in that order: 504 nM and 73.3%.
For `Cn1ccc(-c2ccc(Cc3cc(C(=O)NC[C@H]4CCCN4)nc4ccsc34)cn2)n1` [Compound 427] the same measures were 316 nM and 64.6%.
On to `O=C(NC1CC2(COC2)C1)c1cc(Cc2ccc(-c3nccs3)cc2)c2sccc2n1` [Compound 333], for which, under setting [1], the EC50 turned out to be 446 nM. Besides, the maximum response (Emax) (Table 2, human M1) is 84.7%.
For `Cn1cc(-c2ccc(Cc3cc(C(=O)N[C@H]4CCC[C@@H]4O)nc4ccsc34)cn2)cn1` [Compound 223, N-[(1S,2S)-2-hydroxycyclopentyl]-7-[[6-(1-methylpyrazol-4-yl)-3-pyridyl]methyl]thieno[3,2-b]pyridine-5-carboxamide] the same measures were 29.4 nM and 79.9%.
For `Cn1ccc2nc(C(=O)N[C@H]3CCOC[C@@H]3O)cc(Cc3ccc(-n4cccn4)cc3)c21` [Compound 453, N-[(3R,4S)-3-hydroxytetrahydropyran-4-yl]-1-methyl-7-[(4-pyrazol-1-ylphenyl)methyl]pyrrolo[3,2-b]pyridine-5-carboxamide], in that order: 6.77 nM and 63.1%.
For `Cc1ccc(Cc2cc(C(=O)N[C@H]3CCCNC3)nc3ccsc23)cn1` [Compound 266, 7-[(6-methyl-3-pyridyl)methyl]-N-[(3S)-3-piperidyl]thieno[3,2-b]pyridine-5-carboxamide] the same measures were above 10000 nM and 59.3%.
For `CC(C)(C)N1CC(NC(=O)c2cc(Cc3ccc(-n4cccn4)cc3)c3sccc3n2)C1` [Compound 434, N-(1-tert-butylazetidin-3-yl)-7-[(4-pyrazol-1-ylphenyl)methyl]thieno[3,2-b]pyridine-5-carboxamide], the half-maximal effective concentration (EC50) under setting [1] came to 1460 nM. Besides, the Emax (Table 2, human M1) stood at 66.2%.
`Cc1nc(-c2ccc(Cc3cc(C(=O)NC4CCCNC4=O)nc4ccsc34)cc2)cs1` (centres unmarked) [Compound 198, 7-[[4-(2-methylthiazol-4-yl)phenyl]methyl]-N-(2-oxo-3-piperidyl)thieno[3,2-b]pyridine-5-carboxamide]: the concentration for a half-maximal effect (EC50) under setting [1] is 484 nM. For the same compound, for the setting “Table 2, human M1”, the maximal effect (Emax) is 90%.
For `O=C(NCC1CCOCC1)c1cc(Cc2ccc(-n3cccn3)cc2)c2sccc2n1` [Compound 288, 7-[(4-pyrazol-1-ylphenyl)methyl]-N-(tetrahydropyran-4-ylmethyl)thieno[3,2-b]pyridine-5-carboxamide], in that order: 97.4 nM and 74.4%.
Consider `Cc1csc2c(Cc3ccc(-c4ccn(C)n4)cc3)cc(C(=O)NC3CC4(COC4)C3)nc12` [Compound 304, 3-methyl-7-[[4-(1-methylpyrazol-3-yl)phenyl]methyl]-N-(2-oxaspiro[3.3]heptan-6-yl)thieno[3,2-b]pyridine-5-carboxamide], for which, under setting [1], the EC50 was 568 nM. Further, the Emax (Table 2, human M1) is 72.3%.
For `Cn1ccc2nc(C(=O)NC3CCOC(C)(C)C3)cc(Cc3ccc(-c4cscn4)cc3)c21` (centres unmarked) [Compound 461, N-(2,2-dimethyltetrahydropyran-4-yl)-1-methyl-7-[(4-thiazol-4-ylphenyl)methyl]pyrrolo[3,2-b]pyridine-5-carboxamide] the same measures were 410 nM and 70.8%.
In the case of `Cn1ccc(-c2ccc(Cc3cc(C(=O)N[C@H]4CCCCC[C@@H]4O)nc4ccsc34)cn2)n1` [Compound 411], under setting [1], the EC50 turned out to be 77 nM. In addition, for the setting “Table 2, human M1”, the Emax turned out to be 57.6%.
Take `CO[C@@H]1CCCC[C@H]1NC(=O)c1cc(Cc2ccc(-n3cccn3)cc2)c2scc(C)c2n1` [Compound 119, N-[(1R,2R)-2-methoxycyclohexyl]-3-methyl-7-[(4-pyrazol-1-ylphenyl)methyl]thieno[3,2-b]pyridine-5-carboxamide]: the EC50 under setting [1] worked out at 2280 nM. For the same compound, the Emax (Table 2, human M1) came to 83.3%.
Take `Cc1csc2c(Cc3ccc(-c4ccn(C)n4)cc3)cc(C(=O)N[C@H]3CCC[C@@H]3O)nc12` [Compound 303, N-[(1S,2S)-2-hydroxycyclopentyl]-3-methyl-7-[[4-(1-methylpyrazol-3-yl)phenyl]methyl]thieno[3,2-b]pyridine-5-carboxamide]: the EC50 under setting [1] is 366 nM. In addition, the Emax (Table 2, human M1) is 70.7%.
Turning to `O=C(NCC1CCO1)c1cc(Cc2ccc(-n3cccn3)cc2)c2sccc2n1` (centres unmarked) [Compound 284, N-(oxetan-2-ylmethyl)-7-[(4-pyrazol-1-ylphenyl)methyl]thieno[3,2-b]pyridine-5-carboxamide], the 50% effective concentration (EC50) under setting [1] came to 67.7 nM. For the same compound, for the setting “Table 2, human M1”, the Emax was 66.9%.
For `Cc1nc(-c2ccc(Cc3cc(C(=O)N[C@H]4CCOC[C@@H]4O)nc4c(C)csc34)cc2)co1` [Compound 330, N-[(3R,4S)-3-hydroxytetrahydropyran-4-yl]-3-methyl-7-[[4-(2-methyloxazol-4-yl)phenyl]methyl]thieno[3,2-b]pyridine-5-carboxamide] the same measures were 22.8 nM and 62.8%.
In the case of `Cc1ncc(Cc2cc(C(=O)N[C@@H]3CCCC[C@H]3O)nc3ccsc23)s1` [Compound 136, N-[(1R,2R)-2-hydroxycyclohexyl]-7-[(2-methylthiazol-5-yl)methyl]thieno[3,2-b]pyridine-5-carboxamide], under setting [1], the concentration giving a half-maximal response (EC50) was 359 nM. Besides, the Emax (Table 2, human M1) turned out to be 81%.
On to `Cc1ccc(Cc2cc(C(=O)NC3CCCCC3)nc3ccsc23)cn1` [Compound 43, N-cyclohexyl-7-[(6-methyl-3-pyridyl)methyl]thieno[3,2-b]pyridine-5-carboxamide], for which the EC50 (Table 1, mAChR M1 cell-based functional assay, PAM mode, species not given, read-out: EC50) is 1990 nM.
Take `O=C(NC1CC(F)C1)c1cc(Cc2ccc(-c3cncs3)cc2)c2sccc2n1` (centres unmarked) [Compound 401, N-(3-fluorocyclobutyl)-7-[(4-thiazol-5-ylphenyl)methyl]thieno[3,2-b]pyridine-5-carboxamide]: the concentration for a half-maximal effect (EC50) under setting [1] was found to be 4570 nM. Moreover, the maximum response (Emax) (Table 2, human M1) came out at 40.5%.
For `Cn1cc(-c2ccc(Cc3cc(C(=O)NC4CCOCC4)nc4ccsc34)cc2)nn1` [Compound 229, 7-[[4-(1-methyltriazol-4-yl)phenyl]methyl]-N-tetrahydropyran-4-yl-thieno[3,2-b]pyridine-5-carboxamide] the same measures were 27.1 nM and 78.6%.
